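Briefly, cells in 96-well plates were exposed to five compound concentrations for 48 h, and endpoints were estimated by linear interpolation. The concentration for 50% growth inhibition is given as GI50.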 Calls of active or inactive are those of the source. Cut-off read from the data, not from the text of the source: active = GI50 up to about 1.1 µM and inactive = higher.
Assays:
Experiment in all cases: growth of human tumour cells (NCI), 48 h
T47D = tested on: T47D
U-251 = tested on: U-251
NCI-H226 = tested on: NCI-H226
HL-60 = tested on: HL-60
OVCAR-8 = tested on: OVCAR-8
HCT-116 = tested on: HCT-116
Malme-3M = tested on: Malme-3M
A549 = tested on: A549
HOP-62 = tested on: HOP-62
SF-268 = tested on: SF-268
UACC-257 = tested on: UACC-257
SNB-75 = tested on: SNB-75
SK-MEL-28 = tested on: SK-MEL-28
UACC-62 = tested on: UACC-62
BT-549 = tested on: BT-549
MDA-MB-231 = tested on: MDA-MB-231
NCI-H522 = tested on: NCI-H522
MDA-N = tested on: MDA-N
NCI-H23 = tested on: NCI-H23
HOP-92 = tested on: HOP-92

Row | Compound | GI50 (T47D) | GI50 (U-251) | GI50 (NCI-H226) | GI50 (HL-60) | GI50 (OVCAR-8) | GI50 (HCT-116) | GI50 (Malme-3M) | GI50 (A549) | GI50 (HOP-62) | GI50 (SF-268) | GI50 (UACC-257) | GI50 (SNB-75) | GI50 (SK-MEL-28) | GI50 (UACC-62) | GI50 (BT-549) | GI50 (MDA-MB-231) | GI50 (NCI-H522) | GI50 (MDA-N) | GI50 (NCI-H23) | GI50 (HOP-92)
1 | O=C1c2ccsc2-c2cccc3cccc1c23.O=C1c2sccc2-c2cccc3cccc1c23 | 0.318 µM (active) | 4.62 µM (inactive) | 2.03 µM (inactive) | 11.2 µM (inactive) | 4.94 µM (inactive) | 2.78 µM (inactive) | 0.353 µM (active) | 3.32 µM (inactive) | 2.67 µM (inactive) | 7.89 µM (inactive) | 9.2 µM (inactive) | 3.27 µM (inactive) | 21.1 µM (inactive) | 4.15 µM (inactive) | 1.94 µM (inactive) | 4.35 µM (inactive) | 5.21 µM (inactive) |  |  | 
2 | Cc1ccsc1/C=N/Nc1cc(C)c2cccc(C)c2n1 | > 100 µM (inactive) | > 100 µM (inactive) | > 100 µM (inactive) | 3.78 µM (inactive) | > 100 µM (inactive) |  |  | > 100 µM (inactive) | > 100 µM (inactive) | > 100 µM (inactive) | > 100 µM (inactive) | > 100 µM (inactive) | > 100 µM (inactive) | > 100 µM (inactive) | > 100 µM (inactive) |  |  | > 100 µM (inactive) | > 100 µM (inactive) | > 100 µM (inactive)
3 | CC1(c2cccc(C3CCC4(C=CC3=O)OCCO4)c2)OCCO1 (configuration not stated) | 8.49 µM (inactive) | 18.1 µM (inactive) | 25.9 µM (inactive) | 1.62 µM (inactive) | 13.5 µM (inactive) | 4.2 µM (inactive) | 4.71 µM (inactive) | 18.5 µM (inactive) | 31 µM (inactive) | 17.3 µM (inactive) | 9.48 µM (inactive) | 16.3 µM (inactive) | 16 µM (inactive) | 6.52 µM (inactive) |  | 13.2 µM (inactive) | 1.43 µM (inactive) | 10.3 µM (inactive) | 11.5 µM (inactive) | 5.81 µM (inactive)
4 | COc1ccc(/C=C(\C#N)c2ccccn2)cc1OC |  | 16.3 µM (inactive) | 27.2 µM (inactive) | 27.1 µM (inactive) | > 100 µM (inactive) | 31.7 µM (inactive) | 46.8 µM (inactive) | 41.5 µM (inactive) | 36.7 µM (inactive) | 33 µM (inactive) | > 100 µM (inactive) | 21.3 µM (inactive) | 38.4 µM (inactive) | 58.7 µM (inactive) | 18.6 µM (inactive) |  | 39.8 µM (inactive) | 42.4 µM (inactive) | 43.7 µM (inactive) | 17 µM (inactive)
5 | O=C(CCN1CCCC1)c1ccc(Oc2ccc(F)cc2)cc1 |  | > 100 µM (inactive) | > 100 µM (inactive) | 16 µM (inactive) | > 100 µM (inactive) | 60.8 µM (inactive) | 27.8 µM (inactive) | > 100 µM (inactive) | > 100 µM (inactive) | 87.3 µM (inactive) | 43.1 µM (inactive) | 47.8 µM (inactive) | > 100 µM (inactive) | 54.2 µM (inactive) | 74 µM (inactive) | > 100 µM (inactive) |  | 58.3 µM (inactive) | > 100 µM (inactive) | 15 µM (inactive)
6 | O=C(OCC(OC(=O)c1ccccc1)C1CC(C2(O)CCCCC2)C(=O)O1)c1ccccc1 (configuration not stated) |  | > 25 µM (inactive) | > 25 µM (inactive) |  | > 25 µM (inactive) | > 25 µM (inactive) | > 25 µM (inactive) | > 25 µM (inactive) | > 25 µM (inactive) | > 25 µM (inactive) | > 25 µM (inactive) | 15.7 µM (inactive) | > 25 µM (inactive) | 0.0462 µM (active) | 0.478 µM (active) | > 25 µM (inactive) | > 25 µM (inactive) | > 25 µM (inactive) | 0.05 µM (active) | 
7 | COC1(OC)CC(CO)(CNc2nc(N)nc(Cl)c2C=O)C1 |  | 34.6 µM (inactive) | 93.3 µM (inactive) | 13.6 µM (inactive) | 43 µM (inactive) | 39.3 µM (inactive) | 81.7 µM (inactive) | 59 µM (inactive) | 42.5 µM (inactive) | 44.2 µM (inactive) | 27 µM (inactive) | 90.4 µM (inactive) | 50 µM (inactive) |  | 48.5 µM (inactive) | 20.8 µM (inactive) | 1.99 µM (inactive) |  | 17.6 µM (inactive) | 14.6 µM (inactive)
8 | COC(=O)[C@]12CC=C3O[C@@H]4OC5(CCCCC5)O[C@@H]4C3[C@@H]1C(=O)CCC2=O (some centres not stated) |  | > 100 µM (inactive) | > 100 µM (inactive) | > 100 µM (inactive) | > 100 µM (inactive) | > 100 µM (inactive) | > 100 µM (inactive) | > 100 µM (inactive) | > 100 µM (inactive) | > 100 µM (inactive) | > 100 µM (inactive) | > 100 µM (inactive) | > 100 µM (inactive) | > 100 µM (inactive) |  |  | 83.4 µM (inactive) |  | > 100 µM (inactive) | > 100 µM (inactive)
9 | c1c[nH]c(-c2ccc(-c3ccc[nH]3)c3nsnc23)c1 | 0.0336 µM (active) | 42.1 µM (inactive) | > 100 µM (inactive) | 73.8 µM (inactive) | > 43.7 µM (inactive) | > 45.9 µM (inactive) |  | > 47.5 µM (inactive) | 28.5 µM (inactive) | > 53.6 µM (inactive) | > 61 µM (inactive) | 2.65 µM (inactive) | > 69.5 µM (inactive) | > 47.5 µM (inactive) | 27 µM (inactive) |  | 53.6 µM (inactive) | > 70.1 µM (inactive) | 0.0348 µM (active) | 31.8 µM (inactive)
10 | NS(=O)(=O)c1cc(S(N)(=O)=O)c(NC(=O)N(c2ccccc2)c2ccccc2)c(Cl)c1Cl |  | 24.3 µM (inactive) | 18.9 µM (inactive) | 24.8 µM (inactive) | 13.2 µM (inactive) | 38.7 µM (inactive) |  | 31.8 µM (inactive) |  | 42.2 µM (inactive) | 10.4 µM (inactive) |  | 34.4 µM (inactive) | 26.2 µM (inactive) | 15.9 µM (inactive) | 33 µM (inactive) | 13.2 µM (inactive) | 24.7 µM (inactive) | 20 µM (inactive) | 1.72 µM (inactive)
11 | O=S(=O)(N=[Se](=O)(c1ccccc1)c1ccccc1)c1ccccc1 | > 100 µM (inactive) | > 100 µM (inactive) | > 100 µM (inactive) | 25.1 µM (inactive) | > 100 µM (inactive) | > 100 µM (inactive) |  |  | > 100 µM (inactive) | > 100 µM (inactive) |  | > 100 µM (inactive) | > 100 µM (inactive) |  |  | > 100 µM (inactive) | > 100 µM (inactive) | > 100 µM (inactive) | > 100 µM (inactive) | > 100 µM (inactive)
12 | O=C(CC1OC(O)C(Cl)=C1Cl)c1cccnc1 (configuration not stated) |  | > 41.2 µM (inactive) | > 100 µM (inactive) | > 100 µM (inactive) | > 100 µM (inactive) | > 39.8 µM (inactive) | > 100 µM (inactive) | > 100 µM (inactive) | > 50.2 µM (inactive) | > 68.4 µM (inactive) | > 100 µM (inactive) | > 100 µM (inactive) | > 42.7 µM (inactive) | > 100 µM (inactive) |  |  | > 100 µM (inactive) |  | > 100 µM (inactive) | > 100 µM (inactive)
13 | CC(C)C1=C(Cc2ccccc2)C(=O)O/C1=C\c1cc(Cl)c(O)c(Cl)c1 |  | 17.7 µM (inactive) | 20.3 µM (inactive) | 16.3 µM (inactive) | 20.5 µM (inactive) | 18.2 µM (inactive) | 16.7 µM (inactive) | 21.6 µM (inactive) | 20.2 µM (inactive) | 22.6 µM (inactive) | 16.9 µM (inactive) | 20.1 µM (inactive) | 18.5 µM (inactive) | 16.9 µM (inactive) | > 10 µM (inactive) | 16.9 µM (inactive) |  | 18.3 µM (inactive) | 13.8 µM (inactive) | 
14 | CS(=O)(=O)N(N(CCCl)S(=O)(=O)c1ccccc1)S(C)(=O)=O |  | 17.7 µM (inactive) | > 100 µM (inactive) | > 100 µM (inactive) | > 100 µM (inactive) | > 100 µM (inactive) | > 100 µM (inactive) | > 100 µM (inactive) | > 100 µM (inactive) | 21.3 µM (inactive) | > 100 µM (inactive) | 50.8 µM (inactive) | > 100 µM (inactive) | > 100 µM (inactive) |  |  | > 100 µM (inactive) |  | > 100 µM (inactive) | > 100 µM (inactive)
15 | CCN(CC)c1ccc2c(c1)Nc1cc(=C(C#N)C#N)c3ccccc3c1=N2 |  | > 100 µM (inactive) | > 100 µM (inactive) | > 100 µM (inactive) | 61 µM (inactive) | 82.6 µM (inactive) | > 100 µM (inactive) | > 100 µM (inactive) | > 100 µM (inactive) | > 100 µM (inactive) | > 100 µM (inactive) | > 100 µM (inactive) | > 100 µM (inactive) | > 100 µM (inactive) |  |  | > 100 µM (inactive) |  | > 100 µM (inactive) | > 100 µM (inactive)
16 | CCOC(=O)[C@H](Cc1ccc(O)cc1)/N=C1/[C@H]2CCC[C@]1(O)[C@@](C)([N+](=O)[O-])C2 |  | > 100 µM (inactive) | > 100 µM (inactive) | > 100 µM (inactive) | > 100 µM (inactive) | > 100 µM (inactive) | > 100 µM (inactive) | > 100 µM (inactive) |  |  | > 100 µM (inactive) |  | > 100 µM (inactive) | > 100 µM (inactive) | > 100 µM (inactive) |  | 63.7 µM (inactive) | > 100 µM (inactive) | > 100 µM (inactive) | > 100 µM (inactive)

— ChEMBL document CHEMBL1201862, “PubChem BioAssay data set” (2004)
